Experimental data reported in ChEMBL document CHEMBL4622870, “Design, synthesis and evaluation of hydrazine and acyl hydrazone derivatives of 5-pyrrolidin-2-one as antifungal agents” (Bioorg Med Chem Lett, 2020).

Tests used:
[1] = tested on: Cladosporium cladosporioides; test: Antifungal activity against Cladosporium cladosporioides assessed as fungal growth inhibition at 100 ug/ml by micro-dilution method relative to control; assay type: functional; settings: read-out: GI
Geotrichum candidum [2] = test: Antifungal activity against Geotrichum candidum assessed as fungal growth inhibition at 100 ug/ml by micro-dilution method relative to control; assay type: functional; settings: read-out: GI
Sclerotinia sclerotiorum = test: Antifungal activity against Sclerotinia sclerotiorum assessed as fungal growth inhibition at 100 ug/ml by micro-dilution method relative to control; assay type: functional; settings: read-out: GI
Alternaria alternata = test: Antifungal activity against Alternaria alternata assessed as fungal growth inhibition at 100 ug/ml by micro-dilution method relative to control; assay type: functional; settings: read-out: GI
Kluyveromyces marxianus = test: Antifungal activity against Candida pseudotropicalis assessed as fungal growth inhibition at 100 ug/ml by micro-dilution method relative to control; assay type: functional; settings: read-out: GI
HEK293 = test: Cytotoxicity against human HEK293 cells assessed as effect on cell viability measured after 72 hrs by MTS assay; assay type: cell-based; settings: hek293, 72 h
Paecilomyces variotii = test: Antifungal activity against Paecilomyces variotii assessed as fungal growth inhibition at 100 ug/ml by micro-dilution method relative to control; assay type: functional; settings: read-out: GI
Candida tropicalis = test: Antifungal activity against Candida tropicalis assessed as fungal growth inhibition at 100 ug/ml by micro-dilution method relative to control; assay type: functional; settings: read-out: GI
Penicillium ochrochloron = test: Antifungal activity against Penicillium ochrochloron assessed as fungal growth inhibition at 100 ug/ml by micro-dilution method relative to control; assay type: functional; settings: read-out: GI
Pichia kudriavzevii = test: Antifungal activity against Candida krusei assessed as fungal growth inhibition at 100 ug/ml by micro-dilution method relative to control; assay type: functional; settings: read-out: GI
Fusarium solani = test: Antifungal activity against Fusarium solani assessed as fungal growth inhibition at 100 ug/ml by micro-dilution method relative to control; assay type: functional; settings: read-out: GI
Aspergillus oryzae = test: Antifungal activity against Aspergillus oryzae assessed as fungal growth inhibition at 100 ug/ml by micro-dilution method relative to control; assay type: functional; settings: read-out: GI
Botrytis cinerea = test: Antifungal activity against Botrytis cinerea assessed as fungal growth inhibition at 100 ug/ml by micro-dilution method relative to control; assay type: functional; settings: read-out: GI
Geotrichum candidum [3] = test: Antifungal activity against Geotrichum candidum assessed as fungal growth inhibition by micro-dilution method; assay type: functional

Row | SMILES | inhibition of growth at 100 µg/mL [1] | inhibition of growth at 100 µg/mL (Geotrichum candidum [2]) | inhibition of growth at 100 µg/mL (Sclerotinia sclerotiorum) | inhibition of growth at 100 µg/mL (Alternaria alternata) | inhibition of growth at 100 µg/mL (Kluyveromyces marxianus) | Activity (HEK293) | inhibition of growth at 100 µg/mL (Paecilomyces variotii) | inhibition of growth at 100 µg/mL (Candida tropicalis) | inhibition of growth at 100 µg/mL (Penicillium ochrochloron) | inhibition of growth at 100 µg/mL (Pichia kudriavzevii) | inhibition of growth at 100 µg/mL (Fusarium solani) | inhibition of growth at 100 µg/mL (Aspergillus oryzae) | inhibition of growth at 100 µg/mL (Botrytis cinerea) | MIC50 (Geotrichum candidum [3])
1 | O=C1CC[C@@H](C(=O)N/N=C/c2c(F)c(F)c(F)c(F)c2F)N1 | 11% | 36% | 5% | 0% | 0% | Non-Toxic | 0% | 0% | 21% | 0% | 40% | 4% | 17% | 
2 | CC(C)=CCC/C(C)=C/C=N/NC(=O)[C@@H]1CCC(=O)N1 | 27% | 5% | 15% | 0% | 8% | Non-Toxic | 0% | 38% | 0% | 0% | 43% | 17% | 27% | 
3 | CC1(C)C2CC=C(/C=N/NC(=O)[C@@H]3CCC(=O)N3)C1C2 (some centres not stated) | 0% | 0% | 0% | 0% | 18% | Non-Toxic | 39% | 0% | 0% | 0% | 0% | 4% | 0% | 
4 | O=C1CC[C@@H](C(=O)N/N=C/CCc2ccccc2)N1 | 53% | 68% | 0% | 0% | 12% | Non-Toxic | 39% | 17% | 29% | 0% | 0% | 0% | 6% | 
5 | O=C1CC[C@@H](C(=O)N/N=C/c2ccc(C(F)(F)F)cc2)N1 | 11% | 85% | 0% | 21% | 21% | Non-Toxic | 44% | 17% | 44% | 21% | 55% | 0% | 0% | 63.7 µg/mL
6 | O=C1CC[C@@H](C(=O)N/N=C/c2ccc(Cl)nc2)N1 | 33% | 72% | 0% | 0% | 10% | Non-Toxic | 42% | 0% | 62% | 2% | 23% | 0% | 0% | 38.4 µg/mL
7 | COc1ccc(/C=N/NC(=O)[C@@H]2CCC(=O)N2)cc1 | 35% | 25% | 38% | 3% | 40% | Non-Toxic | 36% | 49% | 23% | 40% | 0% | 24% | 0% | 
8 | O=C1CCC(NNc2ccccn2)N1 (racemic) | 0% | 32% | 0% | 0% | 0% | Non-Toxic | 11% | 8% | 21% | 0% | 64% | 23% | 0% | 
9 | O=C1CC[C@@H](C(=O)N/N=C/C2CCCCC2)N1 | 1% | 62% | 0% | 8% | 30% | Non-Toxic | 36% | 0% | 23% | 0% | 0% | 8% | 8% | 
10 | N#Cc1ccc(/C=N/NC(=O)[C@@H]2CCC(=O)N2)cc1 | 0% | 0% | 0% | 42% | 0% | Non-Toxic | 33% | 0% | 20% | 10% | 0% | 0% | 0% | 
11 | C=C(C)C1CC=C(/C=N/NC(=O)[C@@H]2CCC(=O)N2)CC1 (some centres not stated) | 56% | 39% | 0% | 0% | 0% | Non-Toxic | 31% | 0% | 45% | 18% | 0% | 0% | 13% | 
12 | O=C1CC[C@@H](C(=O)N/N=C/c2cccc(C(F)(F)F)c2Cl)N1 | 36% | 62% | 0% | 12% | 18% | Non-Toxic | 19% | 0% | 44% | 47% | 0% | 4% | 0% | 
13 | COc1cc(/C=N/NC(=O)[C@@H]2CCC(=O)N2)cc(OC)c1OC | 0% | 0% | 0% | 29% | 18% | Non-Toxic | 26% | 0% | 32% | 50% | 0% | 0% | 0% | 
14 | O=C1CC[C@@H](C(=O)N/N=C/c2cc(F)ccc2F)N1 | 34% | 62% | 0% | 0% | 18% | Non-Toxic | 37% | 0% | 26% | 47% | 58% | 13% | 6% | 
15 | OC(Cn1cncn1)(Cn1cncn1)c1ccc(F)cc1F [FLUCONAZOLE] |  |  |  |  |  |  |  |  |  |  |  |  |  | 1.6 µg/mL
16 | COc1cc(/C=N/NC(=O)[C@@H]2CCC(=O)N2)ccc1O | 0% | 0% | 0% | 20% | 0% | Non-Toxic | 22% | 0% | 0% | 37% | 0% | 0% | 0% | 
17 | O=C1CC[C@@H](C(=O)N/N=C/c2c(Cl)cccc2Cl)N1 | 12% | 73% | 58% | 0% | 32% | Non-Toxic | 13% | 16% | 22% | 0% | 60% | 12% | 0% | 1.8 µg/mL
